Reference: patent publication US20160129070A1, “Glutathione Disulfide Compositions and Related Methods for the Treatment of Cancer” (South Dakota Board of Regents, priority 2014, published 2016)

Test system: B16-F10 cells lung metastasis
Test: Murine lung metastasis assay, B16-F10 cells injected through a tail vein
Format: in vivo, mice
Details: no pretreatment of cells; 50 mg/kg i.p. daily for 5 days; day 21
Description: Mice were housed four in a cage and received food and water ad libitum. All mice were used at approximately 7-10 weeks of age and given at least one week break after arrival. All experimental protocols were approved by the Institutional Animal Care and Use Committee. Procedures for murine lung metastasis assays reported previously were followed with minor modification [Bezault, J., Bhimani, R., Wiprovnick, J., and Furmanski, P. (1994) Cancer Res 54, 2310-2312; Kalland, T. (1986) Cancer Res 46, 3018-3022; Schultz, R. M., Silberman, S., Persky, B., Bajkowski, A. S., and Carmichael, D. F. (1988) Cancer Res 48, 5539-5545]. Mice were divided into 7 mice per group for treatment. B16-F10 cells were grown and maintained as monolayers in RPMI 1640 medium supplemented with 10% FBS and 1% penicillin/streptomycin in 5% CO2 at 37° C. The cells were then subjected to FBS starvation in RPMI 1640 medium without FBS for 24 h. Cells were harvested through trypsinization and adjusted to a density of […] with serum free medium. […] The weight of mice was recorded daily. […] Tumor nodules on lung surface were counted under a magnifier.
FIG. 5 presents the representative photographs of the lungs dissected from mice with different treatments. […] The effect was further confirmed by the metastatic tumors counted under a magnifier (Table 3). […]

With `CN(C)/N=N/c1[nH]cnc1C(N)=O` [Dacarbazine] the “Number of metastatic tumors in murine lungs, Average” value was 0.8 ± 2.0.
